Test results published in paper PMC2897734 (Current topics in medicinal chemistry, 2009).
Each block holds one compound with its values, some of them ahead of it.

Tests used:
Type in all cases: binding
[1] = molecular target: coproporphyrinogen III oxidase (Leishmania major, UniProt P84155); assay: fragment cocktail soak, crystal structure
[2] = molecular target: T1, putative adenylate kinase (Leishmania major, UniProt Q4Q7A6); assay: fragment cocktail soak, crystal electron density
T1 sequence (Q4Q7A6 1-180): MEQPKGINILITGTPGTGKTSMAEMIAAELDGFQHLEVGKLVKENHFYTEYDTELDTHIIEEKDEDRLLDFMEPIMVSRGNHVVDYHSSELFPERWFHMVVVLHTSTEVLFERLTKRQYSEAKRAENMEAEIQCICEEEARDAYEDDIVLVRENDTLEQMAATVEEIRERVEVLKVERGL

[3] = molecular target: T2, uracil-DNA glycosylase (Leishmania naiffi, UniProt D0VWU0); assay: fragment cocktail soak, crystal structure
T2 sequence (D0VWU0 1-260): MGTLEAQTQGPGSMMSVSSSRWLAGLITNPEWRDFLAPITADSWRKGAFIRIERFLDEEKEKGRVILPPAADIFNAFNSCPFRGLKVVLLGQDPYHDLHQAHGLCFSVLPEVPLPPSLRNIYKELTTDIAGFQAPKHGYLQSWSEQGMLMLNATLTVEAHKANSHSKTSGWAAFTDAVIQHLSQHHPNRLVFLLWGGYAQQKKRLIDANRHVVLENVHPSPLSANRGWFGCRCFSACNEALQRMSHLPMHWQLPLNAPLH

[4] = molecular target: T3, phosphoglycerate mutase (PGM) (Plasmodium falciparum, UniProt Q8IIG6); assay: fragment cocktail soak, crystal electron density
T3 sequence (Q8IIG6 1-250): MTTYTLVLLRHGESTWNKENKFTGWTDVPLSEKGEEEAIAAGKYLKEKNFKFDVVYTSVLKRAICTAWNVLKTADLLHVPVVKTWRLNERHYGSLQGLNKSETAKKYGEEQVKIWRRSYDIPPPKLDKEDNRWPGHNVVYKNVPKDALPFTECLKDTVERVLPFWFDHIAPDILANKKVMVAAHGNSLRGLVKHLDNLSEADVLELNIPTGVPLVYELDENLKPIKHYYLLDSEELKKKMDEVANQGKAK

[5] = molecular target: T2, uracil-DNA glycosylase; assay: fragment cocktail soak, crystal structure; remark: listed apart in the source

Sequence of coproporphyrinogen III oxidase (P84155 whole entry, the tested form may be a part): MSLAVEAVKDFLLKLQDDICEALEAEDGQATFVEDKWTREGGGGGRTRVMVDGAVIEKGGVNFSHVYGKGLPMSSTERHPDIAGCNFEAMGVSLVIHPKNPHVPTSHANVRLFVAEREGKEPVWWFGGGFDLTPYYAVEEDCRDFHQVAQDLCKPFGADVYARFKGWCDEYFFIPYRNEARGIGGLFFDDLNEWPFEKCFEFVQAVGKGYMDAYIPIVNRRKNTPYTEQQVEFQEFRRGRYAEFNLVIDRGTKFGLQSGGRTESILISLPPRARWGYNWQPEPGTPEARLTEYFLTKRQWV

Structure (SMILES): O=C(O)c1cc2cc(F)ccc2[nH]1 [5-fluoroindole-2-carboxylic acid]
- fragment cocktail soak, crystal structure [1]: Fragments from two different cocktails were found to bind: 5-fluoroindole-2-carboxylic acid (PDB: 3DWS)

Structure (SMILES): Cc1cc(N)c2ccccc2n1 [4-amino-2-methylquinoline]
- fragment cocktail soak, crystal electron density [2]: Electron density for 4-amino-2-methylquinoline when bound to L.major adenylate kinase (left)

Structure (SMILES): c1cc(N2CCOCC2)ccn1 [4-morpholinopyridine]
- fragment cocktail soak, crystal structure [3]: Fragments bound to L.naiffi uracil-DNA glycosylase: 4-morpholinopyridine (left upper)

Structure (SMILES): O=C(O)c1ccc2cccc(O)c2n1 [8-hydroxyquinoline-2-carboxylic acid]
- fragment cocktail soak, crystal structure [3]: DMSO and 8-hydroxyquinoline-2-carboxylic acid (left lower)

Structure (SMILES): O=C(O)c1ccc(-c2ccccc2)o1 [5-phenyl-2-furoic acid]
- fragment cocktail soak, crystal electron density [4]: Electron density for 5-Phenyl-2-furoic acid when bound to P.falciparum PGM (left)

- IC50 [5]: ~15 mM
Structure (SMILES): COc1ccc(Cl)cc1C(=O)O [5-chloro-2-methoxybenzoic acid]
